# Ends that are not written are not given here. Peptide text beside a SMILES is read from it.
# What was measured:
# [1] = target: ACE-I enzyme (Homo sapiens, UniProt P12821); experiment: ACE-I activity in vitro using FAPGG as substrate; type: biochemical; settings: peptides purified by reverse-phase HPLC from 10 kDa UF permeate of Example 1 hydrolysate
# Procedure: ACE-I activity (in vitro) in the dried product was determined using FAPGG as a substrate (Product 305–10 ex Sigma Chemical Corporation, St Louis, Mo., USA) according of the method of D W Cushman & H S Cheung (1971). ACE-I activities are expressed as the amount of material (mg/L) needed to reduce the activity of the ACE-I enzyme by 50%.
# [2] = test system: Spontaneously hypertensive rats (SHRs); experiment: Acute short term effect on systolic blood pressure (tail cuff); type: in vivo, rat; settings: 165 mg/kg body weight, oral in jelly, p=0.0021 after 4 hours, p<0.0001 after 8 hours
# Procedure: Blood pressure was measured using a tail cuff monitor and a purpose designed apparatus for measuring the blood pressure of small animals [IITC Inc, 239 Victory Blvd., Woodland Hills, Calif. 91367, USA]. Each time point was the average of 3–5 readings taken within approximately 5–10 minutes.
# Spontaneously hypertensive rats (SHRs) were sourced from the Animal Resource Centre, Western Australia.
# The test substances were given to each rat on a per kg body weight basis unless otherwise stated. The individual dose for each animal was incorporated into a flavoured jelly, which was readily consumed by the animals.
# The three samples evaluated for short tern blood pressure response were a mildly hydrolysed whey protein concentrate (FIG. 2), a mildly hydrolysed whey protein isolate (see FIG. 3) and a synthesised peptide from. Table 1, namely MKG (SEQ ID NO: 2) (see FIG. 4). The WPC was prepared according to the methodology set out in example 1 of WO 99/65326.
# Acute or short term effects of agents were determined by treating adult SHRs with the agent and then studying their blood pressure responses over the following hours. The study detects if an agent lowers blood pressure that is already elevated.
# Chain of ACE-I enzyme (P12821 30-1306): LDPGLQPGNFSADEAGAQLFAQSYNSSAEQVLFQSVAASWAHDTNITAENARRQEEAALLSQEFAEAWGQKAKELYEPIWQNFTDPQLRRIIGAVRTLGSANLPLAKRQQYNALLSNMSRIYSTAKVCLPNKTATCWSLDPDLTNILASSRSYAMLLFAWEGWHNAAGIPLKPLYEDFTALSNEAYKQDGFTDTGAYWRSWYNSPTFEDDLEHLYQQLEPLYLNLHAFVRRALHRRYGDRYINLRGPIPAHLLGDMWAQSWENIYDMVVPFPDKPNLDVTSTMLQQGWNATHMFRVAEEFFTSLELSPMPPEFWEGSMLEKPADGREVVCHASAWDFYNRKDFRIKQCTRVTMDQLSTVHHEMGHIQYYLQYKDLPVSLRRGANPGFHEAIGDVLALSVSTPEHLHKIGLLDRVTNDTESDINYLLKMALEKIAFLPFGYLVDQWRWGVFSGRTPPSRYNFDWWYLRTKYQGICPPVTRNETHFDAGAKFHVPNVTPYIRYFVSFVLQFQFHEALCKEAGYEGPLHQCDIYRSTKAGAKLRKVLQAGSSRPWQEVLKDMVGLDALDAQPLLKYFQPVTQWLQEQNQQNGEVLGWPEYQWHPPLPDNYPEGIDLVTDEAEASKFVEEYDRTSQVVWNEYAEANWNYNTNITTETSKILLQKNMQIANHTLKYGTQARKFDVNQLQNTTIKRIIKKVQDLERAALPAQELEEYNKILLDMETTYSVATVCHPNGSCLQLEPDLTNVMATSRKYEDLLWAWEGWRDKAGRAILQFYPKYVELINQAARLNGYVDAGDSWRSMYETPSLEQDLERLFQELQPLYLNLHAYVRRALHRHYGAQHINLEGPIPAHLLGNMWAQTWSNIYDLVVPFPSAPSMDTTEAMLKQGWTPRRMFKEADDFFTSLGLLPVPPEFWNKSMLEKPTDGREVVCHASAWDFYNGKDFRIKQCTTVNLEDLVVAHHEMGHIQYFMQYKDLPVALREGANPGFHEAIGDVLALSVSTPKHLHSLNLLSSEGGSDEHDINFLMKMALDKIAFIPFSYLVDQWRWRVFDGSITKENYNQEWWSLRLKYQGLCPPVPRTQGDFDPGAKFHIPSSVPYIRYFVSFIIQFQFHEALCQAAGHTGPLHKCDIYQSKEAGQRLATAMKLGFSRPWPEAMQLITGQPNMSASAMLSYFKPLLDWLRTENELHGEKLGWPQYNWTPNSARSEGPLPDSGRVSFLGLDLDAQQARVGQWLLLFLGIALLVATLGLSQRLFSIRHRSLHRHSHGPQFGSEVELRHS
Compound,IC50 [1] [µM],Reduction in systolic blood pressure compared to control rats [2]
"C[C@H](NC(=O)[C@@H](N)CO)C(=O)N1CCC[C@H]1C(=O)O [Peptide 1, SAP] (H-Ser-Ala-Pro-OH; N-terminus and C-terminus assumed)",80.5,
"CSCC[C@H](N)C(=O)N[C@@H](CCCCN)C(=O)NCC(=O)O [Peptide 2, MKG] (H-Met-Lys-Gly-OH; N-terminus and C-terminus assumed)",68.8,much greater reduction in blood pressure
"ALPMH [Peptide 3, ALPMH]",40.5,
"LIVTQ [Peptide 4, LIVTQ]",33.2,
LKGYGGVSLPEW [Peptide 7],5.36,
"VSLPEW [Peptide 5, VSLPEW]",11,

# Source: patent US7148034B2, “Bioactive whey protein hydrolysate” (New Zealand Dairy Board, priority 2001, dated 2006)
